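A five-concentration, 48-hour dose response in 96-well plates underlies each endpoint, interpolated linearly between surrounding concentrations. At the GI50, growth is halved.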 Calls of active or inactive are those of the source. Rule as the data show it: active = GI50 up to about 1.1 µM and inactive = higher.
Columns and labels:
Experiment in all cases: NCI-60 cell line screen, 48 h
[1] = system: SNB-19
[2] = system: NCI-H226
[3] = system: HCT-15
[4] = system: HOP-92
[5] = system: 786-0
[6] = system: NCI-H23
[7] = system: A549
[8] = system: SF-539
[9] = system: LOX IMVI
[10] = system: A498
[11] = system: NCI-H460
[12] = system: CAKI-1
[13] = system: SK-MEL-5
[14] = system: SF-268
[15] = system: TK-10
[16] = system: OVCAR-5

Measured: GI50

COc1cc2c(c(OC)c1OC)-c1ccc(SC)c(=O)cc1C(CC(=O)Oc1cccc(C#N)c1)C2 (configuration not stated)
0.33 µM: [3]
inactive: [4] 2.31 µM | [12] 3.42 µM
active: [1] 0.678 µM | [2] 0.222 µM | [5] 0.475 µM | [6] 0.454 µM | [7] 0.516 µM | [8] 0.221 µM | [9] 0.484 µM | [10] 0.015 µM | [11] 0.365 µM | [13] 0.313 µM | [14] 0.512 µM

CCCCN(CCCC)/C(=N\C#N)NCc1ccccc1
inactive: [1] 19.6 µM | [2] 24.3 µM | [4] 14.4 µM | [5] 19 µM | [6] 27.1 µM | [15] 25.1 µM | [16] 26.4 µM | [7] 25.8 µM | [8] 23.8 µM | [9] 16.5 µM | [10] 18.1 µM | [11] 13.9 µM | [12] 22.5 µM | [13] 21.9 µM | [14] 29.4 µM
15 µM: [3]

CC1=CC(=O)NP(=O)(C23CC4CC(CC(C4)C2)C3)N1 (configuration not stated)
> 100 µM: [3]
inactive: [1] > 100 µM | [2] > 100 µM | [4] > 100 µM | [5] > 100 µM | [6] > 100 µM | [15] > 100 µM | [16] > 100 µM | [8] > 100 µM | [9] > 100 µM | [10] > 100 µM | [11] > 100 µM | [12] > 100 µM | [13] > 100 µM | [14] > 100 µM

CC(=O)Nc1ccc(C(=O)NN2C(=O)C(Cl)C2c2ccc(O)cc2)cc1 (configuration not stated)
> 100 µM: [3]
inactive: [1] > 100 µM | [2] > 100 µM | [5] 72.4 µM | [15] > 100 µM | [16] > 100 µM | [7] > 100 µM | [8] > 100 µM | [9] > 100 µM | [10] > 100 µM | [11] > 100 µM | [12] > 100 µM | [13] > 100 µM | [14] 64.1 µM

CC1(C)CC(=O)C(CC2C(=O)c3ccccc3C2=O)C(=O)C1
> 100 µM: [3]
inactive: [1] > 100 µM | [2] > 100 µM | [4] > 100 µM | [5] > 100 µM | [6] > 100 µM | [15] > 100 µM | [16] > 100 µM | [7] > 100 µM | [8] > 100 µM | [9] > 100 µM | [10] > 100 µM | [11] > 100 µM | [12] > 100 µM | [13] > 100 µM | [14] > 100 µM

Cc1cc(NS(=O)(=O)c2ccc(NC(=O)c3ccc(Cl)c4c(Nc5ccc(S(N)(=O)=O)cc5)c5ccccc5nc34)cc2)no1
> 100 µM: [3]
inactive: [1] 14.7 µM | [2] 20.3 µM | [4] 19.7 µM | [5] 18.3 µM | [6] 23.4 µM | [15] 27 µM | [16] 24.5 µM | [7] 66.5 µM | [8] 17.3 µM | [9] 14.6 µM | [10] 23.3 µM | [11] 25.8 µM | [12] 21.1 µM | [13] 18.2 µM | [14] 12.9 µM

CCOC(=O)CNC1C(NC(C)=O)C(OC)OC2COC(c3ccccc3)OC21 (configuration not stated)
inactive: [1] > 100 µM | [2] > 100 µM | [4] > 100 µM | [5] > 100 µM | [6] > 100 µM | [15] > 100 µM | [16] > 100 µM | [7] > 100 µM | [8] > 100 µM | [9] > 100 µM | [10] > 100 µM | [11] > 100 µM | [12] > 100 µM | [13] > 100 µM | [14] > 100 µM
> 100 µM: [3]

O=C(O)CCc1coc2ccc(O)cc12
inactive: [1] > 100 µM | [4] 75.7 µM | [5] > 100 µM | [6] > 100 µM | [15] > 100 µM | [7] > 100 µM | [8] > 100 µM | [9] > 100 µM | [10] > 100 µM | [11] > 100 µM | [12] > 100 µM | [13] > 100 µM
> 100 µM: [3]

OCCCCOC(c1ccccc1)(c1ccccc1)c1ccccc1
> 100 µM: [3]
inactive: [2] > 100 µM | [4] > 100 µM | [5] > 100 µM | [6] > 100 µM | [15] > 100 µM | [16] > 100 µM | [7] > 100 µM | [8] > 100 µM | [9] > 100 µM | [11] > 100 µM | [12] > 100 µM | [13] > 100 µM | [14] > 100 µM

C=CCC(C)(C(=O)NCCC)C(=O)c1ccccc1O (configuration not stated)
inactive: [1] > 100 µM | [2] > 100 µM | [5] > 100 µM | [15] > 100 µM | [7] > 100 µM | [8] > 100 µM | [10] > 100 µM | [11] > 100 µM | [12] > 100 µM | [13] > 100 µM | [14] > 100 µM
> 100 µM: [3]

C=CCNC1=C(C(=O)OCC)C(=O)CO1
> 100 µM: [3]
inactive: [1] > 100 µM | [2] > 100 µM | [4] > 100 µM | [5] > 100 µM | [6] > 100 µM | [15] > 100 µM | [16] > 100 µM | [7] > 100 µM | [8] > 100 µM | [9] > 100 µM | [10] > 100 µM | [11] > 100 µM | [12] > 100 µM | [13] > 100 µM | [14] > 100 µM

COc1cc(Br)c(CC2(C#N)c3ccccc3C3C(N2C(=O)c2ccccc2)C3(Cl)Cl)cc1OC (configuration not stated)
inactive: [1] > 65.5 µM | [2] > 65.5 µM | [4] > 65.5 µM | [5] > 65.5 µM | [6] > 65.5 µM | [15] > 65.5 µM | [16] > 65.5 µM | [7] > 65.5 µM | [8] 48 µM | [9] > 65.5 µM | [11] 4.83 µM | [13] 2.94 µM | [14] > 65.5 µM
> 65.5 µM: [3]

C=CCNC(=S)N1CC(C)C(=O)Nc2cc(Cl)ccc21 (configuration not stated)
inactive: [1] > 100 µM | [2] 54.2 µM | [4] > 100 µM | [5] > 100 µM | [6] > 100 µM | [15] > 100 µM | [16] > 100 µM | [7] > 100 µM | [8] 76 µM | [10] > 100 µM | [11] > 100 µM | [12] > 100 µM | [13] > 100 µM | [14] > 100 µM
> 100 µM: [3]

COC(=O)[C@H](CC(C)C)NC(=O)[C@H](Cc1ccccc1)N1CC2C=CC1C2 (some centres not stated)
inactive: [1] > 100 µM | [2] > 100 µM | [4] 96.6 µM | [5] > 100 µM | [6] > 100 µM | [15] > 100 µM | [16] > 100 µM | [7] > 100 µM | [8] > 100 µM | [9] > 100 µM | [10] > 100 µM | [11] > 100 µM | [12] > 100 µM | [13] > 100 µM | [14] > 100 µM
> 100 µM: [3]

Cc1c(C(=O)CSc2nc3ccccc3[nH]2)c(=O)n(-c2ccccc2)n1C
> 100 µM: [3]
inactive: [1] > 100 µM | [2] > 100 µM | [4] > 100 µM | [5] > 100 µM | [6] > 100 µM | [15] > 100 µM | [16] > 100 µM | [7] > 100 µM | [8] > 100 µM | [9] > 100 µM | [10] > 100 µM | [11] > 100 µM | [12] > 100 µM | [13] > 100 µM | [14] > 100 µM

c1ccc(COC2(OCc3ccccc3)CC3OC2C2NN=NC32)cc1 (configuration not stated)
26 µM: [3]
inactive: [2] 18.1 µM | [4] 19.6 µM | [5] 20 µM | [6] 17.5 µM | [16] > 100 µM | [7] 57.1 µM | [8] 22.1 µM | [9] 16.8 µM | [10] > 100 µM | [11] 46.1 µM | [12] 44 µM | [13] 17.1 µM | [14] 22.1 µM

Cc1c(/C=N/NC(=O)c2ccccc2)c(=O)n(-c2ccccc2)n1C
inactive: [1] > 100 µM | [2] > 100 µM | [4] > 100 µM | [5] > 100 µM | [6] > 100 µM | [15] > 100 µM | [7] > 100 µM | [8] > 100 µM | [9] > 100 µM | [10] > 100 µM | [11] > 100 µM | [14] > 100 µM
> 100 µM: [3]

CCOC(=O)/C(C#N)=C/c1[nH]c(C(=O)OCc2ccccc2)c(C)c1C
inactive: [1] > 100 µM | [4] 78.9 µM | [5] > 100 µM | [6] > 100 µM | [15] > 100 µM | [16] > 100 µM | [7] > 100 µM | [8] > 100 µM | [9] > 100 µM | [11] > 100 µM | [12] > 100 µM | [13] 30.3 µM | [14] > 100 µM
> 100 µM: [3]

COc1ccc2nc(NC(=O)C(=O)C(C(=O)c3ccccc3-c3ccccc3)C3OC(=O)c4ccccc43)sc2c1 (configuration not stated)
inactive: [2] 5.27 µM | [4] 16.5 µM | [5] 15.6 µM | [6] 13.8 µM | [15] 25.2 µM | [16] 18.7 µM | [7] 23.8 µM | [8] 15.2 µM | [9] 17 µM | [10] 17.7 µM | [11] 21.7 µM | [13] 16.2 µM | [14] 20 µM
